Measurements from PMC6150271, “‘Click Chemistry’ Synthesis of Novel Natural Product-Like Caged Xanthones Bearing a 1,2,3-Triazole Moiety with Improved Druglike Properties as Orally Active Antitumor Agents” (Molecules : A Journal of Synthetic Chemistry and Natural …, 2017).
In brackets after ≈: the same amount, converted by molar mass. Read-outs that look alike come from different tables or passages of the source. Marks after values point to notes of the source that are not given here.

How the values were obtained:
[1] = tested on: lung cancer A549 transplanted mouse model; assay: In vivo tumor growth inhibition, intravenous administration; parameters: species or system Kunming mice; conditions: 20 mg/kg
Method: The lung cancer A549 transplanted mouse model was employed. DDO-6101 and antitumor drug 5-fluorouracil (5-FU) were also tested for comparison.
Kunming mice with body weights of 18–22 g were transplanted with lung cancer A549 cells according to protocols of transplant tumor research, as previously reported. Twenty-four hours after tumor transplantation, animals were weighed and randomly divided into five groups. All test drugs were given […] 24 h after tumor transplantation. The treated groups were intravenously injected or administered per os different doses of test compounds, respectively. The negative control group received 0.9% normal saline. Treatments were conducted at a frequency of one dose per two days for the intravenous group or one dose per day for the per os group for two or one week, respectively. All animals were sacrificed 24 h after the final treatment. All data are presented as mean ± SD and the statistical significance was evaluated by t-test.

[2] = tested on: human colon carcinoma HCT-116 cell line; assay: MTT antiproliferative assay, HCT116; type: cell-based; conditions: 72 h
Method: (§1) The antiproliferative activity of the ten synthesized caged xanthone derivatives, as well as the lead compound DDO-6101 and GA were assessed with the 3-(4,5-dimethylthiazol-2-yl)-2,5-diphenyltetrazolium bromide (MTT) assay, as previously reported, against six human cancer cell lines, including the human lung carcinoma A549 cell line, taxol-resistant A549 cell line (A549/taxol), cisplatin-resistant A549 cell line (A549/cisplatin), the human hepatocellular carcinoma HepG2 cell line, the human colon carcinoma HCT-116 cell line, and the human glioblastoma U251 cell line. DDO-6101 and GA were used as positive controls for the in vitro assay.
(§2) Cancer cell lines were obtained from Cell Bank of Shanghai, Chinese Academy of Sciences. Cells were cultured in 90% RPMI 1640 medium (GIBCO, Invitrogen Corporation, New York, NY, USA) supplemented with 10% fetal bovine serum (Sijiqing Biotechnology Co., Hangzhou, China), 100 U/mL benzyl penicillin, and 100 μg/mL streptomycin in a humidified environment with 5% CO2 at 37 °C. All the tested compounds were dissolved in DMSO at a concentration of 0.01 mol/L and stored at −4 °C.
(§3) The inhibition of tumour cell growth was measured by a modified tetrazolium (MTT) salt assay. Cells were cultured in a 96-well plate and treated with culture medium alone or different concentrations of the compounds. The cells were incubated for 72 h, and then the MTT assay reagent was added. After a 4 h incubation, the formazan product was quantitated at 570 nm. The IC50 values (the concentrations that gave rise to 50% inhibition of cell viability) were calculated using GraphPad Prism 6 using a variable slope (four parameters).

[3] = Aqueous solubility by HPLC; conditions: thermodynamic from solid
Excerpt: (§4) In parallel with the in vitro antitumor activity testing, the physicochemical properties of the target caged xanthone derivatives were theoretically predicted and experimentally determined in an effort to identify potential druglike compounds prior to the time-consuming and costly development and optimization of derivatives that may ultimately fail in efficacy experiments in vivo. The partition coefficient (logD) was experimentally determined on a Gemini Profiler instrument (pION, Inc., Woburn, MA, USA) by a potentiometric titration method. The polar surface area (PSA), as well as intestinal absorption level, were theoretically predicted by Accelrys Discovery Studio 4.0 (BIOVIA, San Diego, CA, USA) using the ADMET protocol. […] The permeability coefficient (Pe) was determined using a standard parallel artificial membrane permeability assay (PAMPA) on a PAMPA Explorer instrument (pION).
(§5) A HPLC system with an ultraviolet (UV) detector was used to detect the solubility of the compounds. The optimal wavelength was 290 nm. Ethanol/water (85:15) was an efficient eluent at a flow rate of 0.5 mL/min. The compounds were stirred in deionized water overnight to maximize the retention of the compounds in solution. Then, the solutions were filtered and the supernatant was used as a fluid sample for HPLC detection. The permeability (Pe) of the compounds was tested with the help of a standard PAMPA (pION). PAMPA was performed on a PAMPA Explorer instrument (pION) with the PAMPA Explorer command software (Version 3.7.4.1). The compounds were diluted to 10 mM with the system solution buffer (pH 7.4). Then, 150 μL of the diluted compound solution was transferred to a UV plate, and the UV spectrum was collected and used as a reference. Then, paint the membrane with 5 μL of gastrointestinal tract (GIT) lipid. The acceptor chamber was filled with 200 μL of acceptor solution buffer, and the donor chamber was filled with 200 μL of diluted compound solution. The PAMPA sandwich was assembled and left at 25 °C for 4 h. The UV spectra (240–500 nm) from the donor and the acceptor were collected. The permeability coefficient was calculated with the PAMPA Explorer Command software (Version 3.7.4.1) based on the area under the curve (AUC) of the reference plate, the donor plate, and the acceptor plate. The permeability coefficient of the compound was tested for four times, and the data are shown as the average values.

[4] = tested on: cisplatin-resistant A549 cell line (A549/cisplatin); assay: MTT antiproliferative assay, A549/cisplatin; type: cell-based; conditions: Homo sapiens, 72 h
Method: as §1, §2, §3

[5] = Parallel artificial membrane permeability assay (PAMPA)
Excerpt: as §4
as §5, with “The PAMPA sandwich was assembled and left at 25 °C for 4 h.” left out

[6] = logD by potentiometric titration (Gemini Profiler); type: physicochemical; conditions: measured on Gemini Profiler instrument (pION); for logD: pH 7.4, read-out: Log D 7.4
[7] = tested on: taxol-resistant A549 cell line (A549/taxol); assay: MTT antiproliferative assay, A549/taxol; type: cell-based; conditions: Homo sapiens
Method: as §1, §2, §3

[8] = tested on: human hepatocellular carcinoma HepG2 cell line; assay: MTT antiproliferative assay, HepG2; type: cell-based; conditions: 72 h
Method: as §1, §2, §3

[9] = tested on: human lung carcinoma A549 cell line; assay: MTT antiproliferative assay, A549; type: cell-based; conditions: Homo sapiens, A549; MTT, 72 h
Method: as §1, §2, §3

U2OS cells = assay: MTT antiproliferative assay, U2OS; type: cell-based; conditions: Homo sapiens, 72 h
[10] = A549/Taxol, MTT, 72 h, read-out: IC50 A549/Taxol

SMILES	IC50 [2]	solubility ([3]; deionized water)	IC50 [4]	Papp at 4 h, 10 mM ([5]; pH 5)	Papp at 4 h, 10 mM ([5]; pH 6.2)	Papp at 4 h, 10 mM ([5]; pH 7.4)	logD [6]	IC50 [7, 10]	melting point	IC50 [8]	IC50 [9]	IC50 (U2OS cells)	also measured
O=c1[nH]cc(F)c(=O)[nH]1 [Compound 5-FU, 5-fluorouracil, reference compound]	–	–	–	–	–	–	–	–	–	–	–	–	Body Weight Pre-Dose ([1]; pre-dose): 20.25 ± 1.27 g; Body Weight After-Dose ([1]; two weeks): 24.43 ± 2.62 g; Inhibitory Rate ([1]; two weeks): 64.71%; Weight of Tumor ([1]; two weeks): 0.48 ± 0.17 ^b g
CC(C)=CCC12OC(C)(C)C3CC(C=C4C(=O)c5c(OCc6cn(CCN(C)C)nn6)cccc5OC431)C2=O (stereo not drawn) [Compound 8a]	1640 ± 260 nM	1120 µM (≈ 597 µg/mL)	1480 ± 100 nM	27.9 ± 3.3 ×10⁻⁶ cm/s	58.8 ± 2.1 ×10⁻⁶ cm/s	91.4 ± 9.8 ×10⁻⁶ cm/s	2.1	1220 ± 210 nM	156 to 158 °C	2.12 ± 0.41 µM	1950 ± 400 nM	2220 ± 90 nM	–
CC(C)=CCC12OC(C)(C)C3CC(C=C4C(=O)c5c(OCc6cn(CCCN(C)C)nn6)cccc5OC431)C2=O (stereo not drawn) [Compound 8b]	2270 ± 50 nM	1540 µM (≈ 842 µg/mL)	1660 ± 110 nM	16.3 ± 1.2 ×10⁻⁶ cm/s	41.7 ± 3.2 ×10⁻⁶ cm/s	76.1 ± 6.4 ×10⁻⁶ cm/s	1.8	1300 ± 80 nM	133 to 136 °C	1.36 ± 0.16 µM	2620 ± 200 nM	2730 ± 50 nM	–
CC(C)=CCC12OC(C)(C)C3CC(C=C4C(=O)c5c(OCc6cn(CCN7CCCC7)nn6)cccc5OC431)C2=O (stereo not drawn) [Compound 8c]	980 ± 310 nM	1400 µM (≈ 782 µg/mL)	1340 ± 90 nM	42.3 ± 1.5 ×10⁻⁶ cm/s	75.4 ± 6.9 ×10⁻⁶ cm/s	91.9 ± 6 ×10⁻⁶ cm/s	2.2	1290 ± 70 nM	168 to 170 °C	1.19 ± 0.31 µM	2580 ± 390 nM	2010 ± 200 nM	–
CC(C)=CCC12OC(C)(C)C3CC(C=C4C(=O)c5c(OCc6cn(CCCN7CCCC7)nn6)cccc5OC431)C2=O (stereo not drawn) [Compound 8d]	1020 ± 30 nM	1920 µM (≈ 1100 µg/mL)	890 ± 240 nM	15.4 ± 2.1 ×10⁻⁶ cm/s	52.8 ± 1.6 ×10⁻⁶ cm/s	66.4 ± 8.4 ×10⁻⁶ cm/s	1.6	1700 ± 120 nM	144 to 146 °C	4.48 ± 0.29 µM	2620 ± 40 nM	3050 ± 70 nM	–
CC(C)=CCC12OC(C)(C)C3CC(C=C4C(=O)c5c(OCc6cn(CCN7CCCCC7)nn6)cccc5OC431)C2=O (stereo not drawn) [Compound 8e]	2140 ± 180 nM	560 µM (≈ 321 µg/mL)	1290 ± 480 nM	47.8 ± 4.7 ×10⁻⁶ cm/s	57.2 ± 1.4 ×10⁻⁶ cm/s	78.2 ± 8.8 ×10⁻⁶ cm/s	2.9	2030 ± 110 nM	173 to 176 °C	4.85 ± 0.39 µM	2170 ± 120 nM	4660 ± 30 nM	Pe range ([5]; range under different pH from 5.0 to 7.4): 47.0–78.2 × 10^–6 cm/s
CC(C)=CCC12OC(C)(C)C3CC(C=C4C(=O)c5c(OCc6cn(CCCN7CCCCC7)nn6)cccc5OC431)C2=O (stereo not drawn) [Compound 8f]	1390 ± 40 nM	880 µM (≈ 516 µg/mL)	1320 ± 120 nM	34.9 ± 3.6 ×10⁻⁶ cm/s	55.1 ± 0.8 ×10⁻⁶ cm/s	68.7 ± 5.3 ×10⁻⁶ cm/s	2.7	1290 ± 80 nM	125 to 128 °C	6.3 ± 0.48 µM	1070 ± 280 nM	2070 ± 110 nM	–
CC(C)=CCC12OC(C)(C)C3CC(C=C4C(=O)c5c(OCc6cn(CCCN7CCOCC7)nn6)cccc5OC431)C2=O (stereo not drawn) [Compound 8h]	950 ± 120 nM	3700 µM (≈ 2180 µg/mL)	360 ± 40 nM	40 ± 0.1 ×10⁻⁶ cm/s	58 ± 6.1 ×10⁻⁶ cm/s	72.6 ± 0.1 ×10⁻⁶ cm/s	0.9	550 ± 80 nM	143 to 145 °C	3.07 ± 0.13 µM	1030 ± 60 nM	730 ± 70 nM	IC50 ([7]; range over both resistant A549 lines and both compounds, read-out: IC50 values, taxol-resistant and cisplatin-resistant A549 cell lines): 330 to 550 nM
CC(C)=CCC12OC(C)(C)C3CC(C=C4C(=O)c5c(OCc6cn(CCN7CCN(C)CC7)nn6)cccc5OC431)C2=O (stereo not drawn) [Compound 8i]	6150 ± 860 nM	3220 µM (≈ 1890 µg/mL)	780 ± 80 nM	11.3 ± 0.6 ×10⁻⁶ cm/s	41.5 ± 1.3 ×10⁻⁶ cm/s	67.5 ± 4.2 ×10⁻⁶ cm/s	1	2120 ± 90 nM	171 to 175 °C	5.35 ± 0.23 µM	3330 ± 490 nM	9510 ± 1520 nM	–
CC(C)=CCC[C@]1(C)C=Cc2c(O)c3c(c(CC=C(C)C)c2O1)O[C@]12C(=C[C@@H]4C[C@H]1C(C)(C)O[C@@]2(C/C=C(/C)C(=O)O)C4=O)C3=O [GA, Gambogic acid, reference compound]	340 ± 80 nM	–	2500 ± 60 nM	–	–	–	–	290 ± 40 nM	–	–	–	4670 ± 110 nM	solubility ([3]; water): < 5 µM; Pe range ([5]; PAMPA, 4 h, 10 mM): 0.9–2.3 × 10^–6 cm/s; Papp at 4 h, 10 mM ([5]; PAMPA, pH 5): 0.9 ± 0.5 ×10⁻⁶ cm/s; Pe pH=6.2 ([5]; pH 6.2): 1.8±0.2 10-6 cm/s; Pe pH=7.4 ([5]; pH 7.4): 2.3±0.3 10-6 cm/s; Log D 7.4 [6]: 3.6
CC(C)NCC(O)COc1cccc2ccccc12 (stereo not drawn) [Propranolol, reference compound]	–	–	–	–	–	–	–	–	–	–	–	–	Pe pH=7.4 ([5]; pH 7.4): 127.5±15.8 10-6 cm/s; Pe pH=7.4 ([5]; pH 7.4, listed as propranolol): 127.5 10-6 cm/s
